In ChEMBL document CHEMBL2380278, “Synthesis and antibacterial evaluation of a novel series of 10-hydroxyl ketolide derivatives” (2013):
Values after ≈ are worked out from the molar mass of the structure shown.

Legend:
Staphylococcus aureus [1] = assay: Antibacterial activity against drug-resistant Staphylococcus aureus by broth microdilution method; format: functional
Escherichia coli [2] = assay: Antibacterial activity against Escherichia coli ATCC 25922 by broth microdilution method; format: functional
Salmonella typhi = assay: Antibacterial activity against drug-resistant Salmonella typhi by broth microdilution method; format: functional, Salmonella enterica subsp. enterica serovar Typhi; details: Salmonella enterica
Escherichia coli [3] = assay: Antibacterial activity against Escherichia coli ATCC 35218 by broth microdilution method; format: functional
Pseudomonas aeruginosa [4] = assay: Antibacterial activity against Pseudomonas aeruginosa ATCC 27853 by broth microdilution method; format: functional
Pseudomonas aeruginosa [5] = assay: Antibacterial activity against drug-resistant Pseudomonas aeruginosa by broth microdilution method; format: functional
Staphylococcus aureus [6] = assay: Antibacterial activity against Staphylococcus aureus ATCC 25923 by broth microdilution method; format: functional
Escherichia coli [7] = assay: Antibacterial activity against drug-resistant Escherichia coli by broth microdilution method; format: functional
Klebsiella pneumoniae = assay: Antibacterial activity against drug-resistant Klebsiella pneumoniae by broth microdilution method; format: functional
[8] = system: Staphylococcus epidermidis; assay: Antibacterial activity against drug-resistant Staphylococcus epidermidis by broth microdilution method; format: functional

Row | Compound | MIC (Staphylococcus aureus [1]) | MIC (Escherichia coli [2]) | MIC (Salmonella typhi) | MIC (Escherichia coli [3]) | MIC (Pseudomonas aeruginosa [4]) | MIC (Pseudomonas aeruginosa [5]) | MIC (Staphylococcus aureus [6]) | MIC (Escherichia coli [7]) | MIC (Klebsiella pneumoniae) | MIC [8]
1 | CC[C@H]1OC(=O)[C@H](C)C(=O)[C@H](C)[C@@H](O[C@@H]2O[C@H](C)C[C@H](N(C)C)[C@H]2O)[C@](C)(OC)C[C@@H](C)C(=O)[C@@](C)(O)[C@H](O)[C@]1(C)O | > 128 µg/mL | > 128 µg/mL | > 128 µg/mL | > 128 µg/mL | > 128 µg/mL | > 128 µg/mL | 64 µg/mL (≈ 106 µM) | > 128 µg/mL | > 128 µg/mL | > 128 µg/mL
2 | CC[C@H]1OC(=O)[C@H](C)C(=O)[C@H](C)[C@@H](O[C@@H]2O[C@H](C)C[C@H](N(C)C)[C@H]2O)[C@](C)(OC)C[C@@H](C)C(=O)[C@@](C)(O)[C@H]2OC(=O)O[C@]12C | > 128 µg/mL | > 128 µg/mL | > 128 µg/mL | > 128 µg/mL | > 128 µg/mL | > 128 µg/mL | 128 µg/mL (≈ 203 µM) | > 128 µg/mL | > 128 µg/mL | 64 µg/mL (≈ 102 µM)
3 | CC[C@H]1OC(=O)[C@H](C)C(=O)[C@H](C)[C@@H](O[C@@H]2O[C@H](C)C[C@H](N(C)C)[C@H]2O)[C@](C)(OC)C[C@@H](C)C(=O)[C@@](C)(O)[C@H]2OS(=O)O[C@]12C (stereo not given in full) | > 128 µg/mL | > 128 µg/mL | > 128 µg/mL | > 128 µg/mL | > 128 µg/mL | > 128 µg/mL | 64 µg/mL (≈ 98.5 µM) | > 128 µg/mL | > 128 µg/mL | 8 µg/mL (≈ 12.3 µM)
4 | CC[C@H]1OC(=O)[C@H](C)C(=O)[C@H](C)[C@@H](O[C@@H]2O[C@H](C)C[C@H](N(C)C)[C@H]2O)[C@](C)(OC)C[C@@H](C)C(=O)[C@]2(C)O[C@H]2[C@]1(C)O | > 128 µg/mL | > 128 µg/mL | > 128 µg/mL | > 128 µg/mL | > 128 µg/mL | > 128 µg/mL | 128 µg/mL (≈ 219 µM) | > 128 µg/mL | > 128 µg/mL | 128 µg/mL (≈ 219 µM)
5 | CC[C@H]1OC(=O)[C@H](C)C(=O)[C@H](C)[C@@H](O[C@@H]2O[C@H](C)C[C@H](N(C)C)[C@H]2O)[C@](C)(OC)C[C@@H](C)C(=O)[C@@H](C)[C@H]2OC(=O)O[C@@]21C | 128 µg/mL (≈ 209 µM) | 128 µg/mL (≈ 209 µM) | 128 µg/mL (≈ 209 µM) | 128 µg/mL (≈ 209 µM) | > 128 µg/mL | > 128 µg/mL | 64 µg/mL (≈ 104 µM) | 64 µg/mL (≈ 104 µM) | 128 µg/mL (≈ 209 µM) | 0.0625 µg/mL (≈ 0.102 µM)
6 | CC[C@H]1OC(=O)[C@H](C)[C@@H](O[C@H]2C[C@@](C)(OC)[C@@H](O)[C@H](C)O2)[C@H](C)[C@@H](O[C@@H]2O[C@H](C)C[C@H](N(C)C)[C@H]2O)[C@](C)(OC)C[C@@H](C)C(=O)[C@H](C)[C@@H](O)[C@]1(C)O [CLARITHROMYCIN] | > 128 µg/mL | 64 µg/mL (≈ 85.6 µM) | 64 µg/mL (≈ 85.6 µM) | 32 µg/mL (≈ 42.8 µM) | 64 µg/mL (≈ 85.6 µM) | 128 µg/mL (≈ 171 µM) | 32 µg/mL (≈ 42.8 µM) | 64 µg/mL (≈ 85.6 µM) | 64 µg/mL (≈ 85.6 µM) | 64 µg/mL (≈ 85.6 µM)
7 | CC[C@H]1OC(=O)[C@H](C)C(=O)[C@H](C)[C@@H](O[C@@H]2O[C@H](C)C[C@H](N(C)C)[C@H]2O)[C@](C)(OC)C[C@@H](C)C(=O)[C@H](C)[C@H]2N(CCCCn3cnc(-c4cccnc4)c3)C(=O)O[C@]12C [TELITHROMYCIN] | 16 µg/mL (≈ 19.7 µM) | 2 µg/mL (≈ 2.46 µM) | 16 µg/mL (≈ 19.7 µM) | 8 µg/mL (≈ 9.85 µM) | 64 µg/mL (≈ 78.8 µM) | 64 µg/mL (≈ 78.8 µM) | 16 µg/mL (≈ 19.7 µM) | 32 µg/mL (≈ 39.4 µM) | 16 µg/mL (≈ 19.7 µM) | 0.125 µg/mL (≈ 0.154 µM)
